Experimental findings from patent publication US20240270801A1, “EPITOPE PEPTIDE OF HUMAN ALPHA-SYNUCLEIN AND PHARMACEUTICAL COMPOSITION INCLUDING SAID PEPTIDE” (Sumitomo Pharma Co., Ltd., priority 2021, published 2024) are described below.

Test [1] concerns aggregated human αSyn. As to the kind of experiment: Antibody-inducing ability in mice: ELISA antibody titer of immune serum with respect to aggregated human αSyn. The test is classed as in vivo, mouse. The conditions noted are these: for Antibody titer with respect to aggregated human αSyn, relative to control: mice; for Antibody titer with respect to aggregated human αSyn (N = 4 − 6, mean ± standard deviation): Example 2, serum 2 weeks after second administration. As for the experimental part:
(§1) Using the various AJ peptide-human αSyn peptide conjugates produced in Example 1, an antibody-inducing ability with respect to human αSyn in mice was evaluated. The various AJ-human αSyn peptide conjugates (250 μg/mouse) or KLH-DMPVDPDN (25 μg/mouse) in physiological saline were intramuscularly administered to balb/c mice (females, 6 weeks old, CLEA Japan, Inc.) twice at a 2-week interval for immunization using aluminum hydroxide (Alum) (InvivoGen, 50 μg/mouse) as an adjuvant. As a negative control, physiological saline (100 μL/mouse) comprising the same amount of aluminum hydroxide was administered twice. Two weeks after the second administration, serum was recovered to evaluate the antibody titer with respect to human αSyn by ELISA.
(§2) ELISA was performed by the following method. 96-well plates were coated with human αSyn (Sigma) at 0.2 μg/well. After washing with PBST (Phosphate Buffered Saline comprising 0.05% Tween) once, blocking was performed with 3% skim milk (FUJIFILM Wako Pure Chemical Corporation). After washing with PBST three times, diluted serum was added to cause a reaction at room temperature for 1 hour. Furthermore, after washing with PBST three times, Goat anti-mouse IgG-HRP (abcam) was added to cause a reaction at room temperature for 1 hour. After washing with PBST three times, SureBlue TMB Microwell Peroxidase Substrate (KPL) was added to cause a reaction at room temperature for 10 minutes while light shielding. An equal volume of a TMB Stop Solution (KPL) was added to stop the reaction, and the absorbance at 450 nm was measured. ELISA with respect to aggregated human αSyn was performed by coating with the aggregated human αSyn (Stress Marq) at 15 ng/well instead of human αSyn in the above-mentioned method.
The antibody-inducing ability of the AJ-human αSyn peptide conjugates (AJ-p54, AJ-p54-KLH, and AJ-DMPVDPDN) produced in Example 1 with respect to human αSyn and aggregated human αSyn in mice was evaluated. Physiological saline or the AJ-human αSyn peptide conjugate (250 μg/mouse) was intramuscularly administered to balb/c mice (females, 6 weeks old, CLEA Japan, Inc.) twice at a 2-week interval using Alum (InvivoGen, 50 μg/mouse) as an adjuvant. Furthermore, KLH-DMPVDPDN (25 μg/mouse) was administered using Alum (InvivoGen, 50 μg/mouse) as an adjuvant. Two weeks after the second administration, serum was recovered to evaluate the antibody titer by ELISA. ELISA was performed by the method described in Example 2.
The antibody-inducing ability of the produced various human αSyn peptide conjugates with respect to human αSyn and aggregated human αSyn in the mice was evaluated by the method described in Example 2 using the antibody titers with respect to human αSyn and aggregated human αSyn of the mouse immune serum. […] In Table 6, the antibody titer of AJ-p242, AJ-p244, AJ-p347, or AJ-p361 is shown with the antibody titer of AJ-p150 as a control being 1 (logarithm). In addition, the antibody titers of AJ-p229, AJ-p237, and AJ-p298 are shown with the antibody titer of AJ-p54 as a control being 1 (logarithm).
The antibody-inducing ability of the AJ-human αSyn peptide conjugates with a modified linker with respect to human αSyn and aggregated human αSyn in the mice was evaluated using the antibody titers with respect to human αSyn and aggregated human αSyn of the mouse immune serum. […] In Table 8, the antibody titers of the AJ-human αSyn peptide conjugates with various modified linkers comprising p54 are shown with the antibody titer of AJ-p54 as a control being 1 (logarithm). In addition, the antibody titers of the AJ-human αSyn peptide conjugates with various modified linkers comprising p150 are shown with the antibody titer of AJ-p150 as a control being 1 (logarithm).
On the technique in general: An ELISA detects its analyte on a solid surface through an enzyme-linked reagent.

The test system of test [2] is human αSyn. As to the kind of experiment: Antibody-inducing ability in mice: ELISA antibody titer of immune serum with respect to human αSyn. Format: in vivo, mouse. Set-up: key to Antibody titer with respect to human αSyn, relative to control: log titer relative to control conjugate (control = 1). Conditions: for Antibody titer with respect to human αSyn, relative to control / Antibody titer (N = 4 − 6, mean ± standard deviation) with respect to human αSyn: mice; for Antibody titer compared with control conjugate (in words): Example 9, mice, human αSyn and aggregated human αSyn, control AJ-p150 or AJ-p54; for Antibody titer with respect to human αSyn (N = 4 − 6, mean ± standard deviation): Example 2, serum 2 weeks after second administration; for Antibody titer (N = 4 − 6, mean ± standard deviation) with respect to human αSyn: Example 3, same manner as Example 2. As for the experimental part:
as §1
as §2, with “above-mentioned method. […]” for “above-mentioned method.”
The antibody-inducing ability of the produced various human αSyn peptide conjugates with respect to human αSyn and aggregated human αSyn in the mice was evaluated by the method described in Example 2 using the antibody titers with respect to human αSyn and aggregated human αSyn of the mouse immune serum. […] In Table 6, the antibody titer of AJ-p242, AJ-p244, AJ-p347, or AJ-p361 is shown with the antibody titer of AJ-p150 as a control being 1 (logarithm). In addition, the antibody titers of AJ-p229, AJ-p237, and AJ-p298 are shown with the antibody titer of AJ-p54 as a control being 1 (logarithm). […]

The mark [3] stands for this setting: Example 10, modified linker, titer of AJ-p54 or AJ-p150 as control being 1 (logarithm).
Setting [4] is: Example 9, N = 4, titer of AJ-p150 or AJ-p54 as control being 1 (logarithm).
Where [5] appears, read: balb/c mice, i.m. twice at 2-week interval, Alum, AJ conjugates 250 μg/mouse, KLH-DMPVDPDN 25 μg/mouse.
Setting [6] is: Example 4, balb/c mice, i.m. twice at 2-week interval, Alum, AJ conjugates 250 μg/mouse, KLH-DMPVDPDN 25 μg/mouse.

Non-standard residues stand in square brackets, D forms with d. No end group written: not given here. KLH = keyhole limpet hemocyanin; Ahx = NCCCCCC(=O)O

On to “ELKLIFLHRLKRLRKRLKRKDDAKKEAYEMPSEE [AJ-DDAKK-p150]”, for which the “Antibody titer with respect to aggregated human αSyn, relative to control” value in test [1] (setting [3]) was 1.30. Besides, the “Antibody titer with respect to human αSyn, relative to control” value in test [2] (setting [3]) stood at 1.14.
For “ELKLIFLHRLKRLRKRLKRKDDAKKKKDQLGKNE [AJ-DDAKK-p54]” the same measures were 0.98 and 1.03.
Consider “ELKLIFLHRLKRLRKRLKRKEAAAKEAYEMPSEE [AJ-EAAAK-p150]”, for which, in test [1] (setting [3]), the “Antibody titer with respect to aggregated human αSyn, relative to control” value was 1.16. The “Antibody titer with respect to human αSyn, relative to control” value in test [2] (setting [3]) was 1.14.
The matching figures for “ELKLIFLHRLKRLRKRLKRKEAAAKKKDQLGKNE [AJ-EAAAK-p54]”: 0.96 and 0.96.
For “ELKLIFLHRLKRLRKRLKRKGEAYEMPSEE [AJ-G-p150]” the same measures were 0.95 and 0.96.
On to “ELKLIFLHRLKRLRKRLKRKGGGGSEAYEMPSEE [AJ-GGGGS-p150]”, for which, in test [1] (setting [3]), the “Antibody titer with respect to aggregated human αSyn, relative to control” value is reported as 1.25. Further, the “Antibody titer with respect to human αSyn, relative to control” value in test [2] (setting [3]) is 1.19.
The matching figures for “ELKLIFLHRLKRLRKRLKRKGGGGSKKDQLGKNE [AJ-GGGGS-p54]”: 1.02 and 1.05.
For “ELKLIFLHRLKRLRKRLKRKGKKDQLGKNE [AJ-G-p54]”, the “Antibody titer with respect to aggregated human αSyn, relative to control” value in test [1] (setting [3]) is on record as 0.96. In test [2] (setting [3]), the “Antibody titer with respect to human αSyn, relative to control” value turned out to be 0.89.
As to “ELKLIFLHRLKRLRKRLKRKPPDPDPEAYEMPSEE [AJ-PPDPDP-p150]”, in test [1] (setting [3]), the “Antibody titer with respect to aggregated human αSyn, relative to control” value turned out to be 1.37. Moreover, the “Antibody titer with respect to human αSyn, relative to control” value in test [2] (setting [3]) was found to be 1.33.
As for “ELKLIFLHRLKRLRKRLKRKPPDPDPKKDQLGKNE [AJ-PPDPDP-p54]”, the “Antibody titer with respect to aggregated human αSyn, relative to control” value in test [1] (setting [3]) is recorded as 0.88. In addition, in test [2] (setting [3]), the “Antibody titer with respect to human αSyn, relative to control” value is 0.89.
“ELKLIFLHRLKRLRKRLKRKXAAYEMPSEEG (ELKLIFLHRLKRLRKRLKRK[Ahx]AAYEMPSEEG) [AJ-p242]”: the “Antibody titer with respect to aggregated human αSyn, relative to control” value in test [1] (setting [4]) was found to be 1.12. The “Antibody titer compared with control conjugate (in words)” value in test [2] is reported as “same level of an antibody titer”. Also, in test [2] (setting [4]), the “Antibody titer with respect to human αSyn, relative to control” value was found to be 1.06.
The matching figures for “ELKLIFLHRLKRLRKRLKRKXDAFEMPSEEG (ELKLIFLHRLKRLRKRLKRK[Ahx]DAFEMPSEEG) [AJ-p361]”: 0.95, “same level of an antibody titer” and 0.92.
Regarding “ELKLIFLHRLKRLRKRLKRKXDAYEMPSEEG (ELKLIFLHRLKRLRKRLKRK[Ahx]DAYEMPSEEG) [AJ-p276]”, the “Antibody titer with respect to aggregated human αSyn (N = 4 − 6, mean ± standard deviation)” value in test [1] (setting [5]) stood at 896 ± 256. For the same substance, the “Antibody titer with respect to human αSyn (N = 4 − 6, mean ± standard deviation)” value in test [2] (setting [5]) is on record as 1792 ± 512.
In the case of “ELKLIFLHRLKRLRKRLKRKXDMPVDPDN (ELKLIFLHRLKRLRKRLKRK[Ahx]DMPVDPDN) [AJ-DMPVDPDN, reference compound]”, the “Induction of the antibody to aggregated human αSyn (in words)” value in test [1] (Example 4, balb/c mice) is “very weak antibody-inducing effect”. Moreover, the “Antibody titer with respect to aggregated human αSyn (mean ± standard deviation)” value in test [1] (setting [6]) was determined as 358 ± 140. Besides, the “Induction of the antibody to human αSyn (in words)” value in test [2] (Example 4, balb/c mice) is “very weak antibody-inducing effect”. Besides, in test [2] (setting [6]), the “Antibody titer with respect to human αSyn (mean ± standard deviation)” value is reported as 168 ± 122.
Regarding “ELKLIFLHRLKRLRKRLKRKXEAAEMPSEEG (ELKLIFLHRLKRLRKRLKRK[Ahx]EAAEMPSEEG) [AJ-p244]”, in test [1] (setting [4]), the “Antibody titer with respect to aggregated human αSyn, relative to control” value turned out to be 1.10. Moreover, in test [2], the “Antibody titer compared with control conjugate (in words)” value is recorded as “same level of an antibody titer”. For the same substance, the “Antibody titer with respect to human αSyn, relative to control” value in test [2] (setting [4]) came out at 1.06.
With “ELKLIFLHRLKRLRKRLKRKXEAFEMPSEEG (ELKLIFLHRLKRLRKRLKRK[Ahx]EAFEMPSEEG) [AJ-p277]”, the “Antibody titer with respect to aggregated human αSyn (N = 4 − 6, mean ± standard deviation)” value in test [1] (setting [5]) worked out at 576 ± 322. Also, the “Antibody titer with respect to human αSyn (N = 4 − 6, mean ± standard deviation)” value in test [2] (setting [5]) was found to be 1920 ± 1585.
Turning to “ELKLIFLHRLKRLRKRLKRKXEAYEMPSEDG (ELKLIFLHRLKRLRKRLKRK[Ahx]EAYEMPSEDG) [AJ-p283, AJ peptide linked to p283 via ε-Acp (X)]”, in test [1] (Example 2, balb/c mice), the “Antibody-inducing ability regarding the aggregated human αSyn (in words)” value is “particularly strong antibody-inducing ability”. In addition, in test [1] (setting [5]), the “Antibody titer with respect to aggregated human αSyn (N = 4 − 6, mean ± standard deviation)” value was 1152 ± 644. In addition, the “Antibody titer with respect to human αSyn (N = 4 − 6, mean ± standard deviation)” value in test [2] (setting [5]) worked out at 2304 ± 1289.
For “KKDQLGKNE-C-KLH (KKDQLGKNEC-{KLH}) [p54-KLH, KLH-human αSyn peptide conjugate]”, the “Induction of the antibody to human αSyn (in words)” value in test [2] (Example 3, mice) is given as “the antibody to human αSyn was induced”. Also, the “Antibody titer (N = 4 − 6, mean ± standard deviation) with respect to human αSyn” value in test [2] amounted to 3072 ± 2748.
Regarding “KLH-C-ELKLIFLHRLKRLRKRLKRKXKKDQLGKNE ({KLH}-CELKLIFLHRLKRLRKRLKRK[Ahx]KKDQLGKNE) [KLH-AJ-p54, KLH-modified AJ-human αSyn peptide conjugate, KLH linked via cysteine to the N-terminal]”, the “Induction of the antibody to human αSyn (in words)” value in test [2] (Example 3, mice) was “induced to the same extent”. Further, in test [2], the “Antibody titer (N = 4 − 6, mean ± standard deviation) with respect to human αSyn” value turned out to be 1707 ± 1240.
For “KLH-C-KKDQLGKNE ({KLH}-CKKDQLGKNE) [KLH-p54, KLH-human αSyn peptide conjugate]” the same measures were “the antibody to human αSyn was induced” and 4096 ± 2243.
